Data: DBAASP
In brackets after ≈: the same amount, converted by molar mass.

Experiments:
Experiment in all cases: ≥ marks a high value that may be exact or a test limit, other limits are often not marked, values filed in µg/mL are converted to µM
[1] = test system: Pseudomonas aeruginosa PAO1
Staphylococcus aureus = test system: Staphylococcus aureus
Escherichia coli = test system: Escherichia coli
Pseudomonas aeruginosa = test system: Pseudomonas aeruginosa
Escherichia coli UB1005 = test system: Escherichia coli UB1005
[2] = test system: Staphylococcus aureus ATCC 25923

Structure (SMILES) | MIC [1] | MIC (Pseudomonas aeruginosa) | also measured
CC[C@H](C)[C@H](NC(=O)[C@@H](NC(=O)[C@H](CC(N)=O)NC(=O)[C@H](CC(C)C)NC(=O)[C@H](CCSC)NC(=O)[C@@H](NC(=O)[C@H](Cc1ccccc1)NC(=O)[C@H](Cc1ccccc1)NC(=O)[C@H](CC(N)=O)NC(=O)[C@H](CCCCN)NC(=O)[C@H](CC(C)C)NC(=O)[C@H](CC(N)=O)NC(=O)[C@H](CCCCN)NC(=O)[C@@H](NC(=O)[C@@H](NC(=O)[C@@H](NC(=O)[C@H](C)NC(=O)[C@@H](NC(=O)[C@H](CCCCN)NC(=O)[C@@H](N)CCCCN)[C@@H](C)CC)[C@@H](C)CC)[C@@H](C)CC)[C@@H](C)O)[C@@H](C)CC)[C@@H](C)CC)C(=O)O [KKIAIITKNLKNFFIMLNII] | > 128 µM |  | 
CC(C)C[C@H](NC(=O)CNC(=O)[C@H](CCCCN)NC(=O)[C@H](C)NC(=O)[C@H](CC(C)C)NC(=O)[C@H](CCCCN)NC(=O)[C@H](C)NC(=O)[C@H](CC(C)C)NC(=O)CNC(=O)[C@H](CCCCN)NC(=O)[C@H](C)NC(=O)[C@H](Cc1c[nH]c2ccccc12)NC(=O)[C@H](CCCCN)NC(=O)[C@H](C)NC(=O)[C@H](CC(C)C)NC(=O)CNC(=O)[C@H](CCCCN)NC(=O)[C@H](C)NC(=O)[C@H](CC(C)C)NC(=O)[C@@H](N)CCCCN)C(=O)N[C@@H](C)C(N)=O [KLAKGLAKWAKGLAKLAKGLA] |  | 15 µM (≈ 32 µg/mL) | MIC (Staphylococcus aureus): 3.74 µM (≈ 8 µg/mL); MIC (Escherichia coli): 3.74 µM (≈ 8 µg/mL)
CC[C@H](C)[C@H](NC(=O)[C@H](Cc1ccccc1)NC(=O)[C@H](CO)NC(=O)[C@H](CCCCN)NC(=O)[C@H](Cc1c[nH]c2ccccc12)NC(=O)[C@@H](N)CCCCN)C(=O)N[C@@H](CC(N)=O)C(=O)N[C@@H](CCCCN)C(=O)N[C@@H](CC(C)C)C(=O)N[C@H](C(=O)N[C@@H](CO)C(=O)N[C@@H](CCCCN)C(=O)N[C@@H](Cc1ccccc1)C(=O)N[C@@H](CC(C)C)C(=O)N[C@@H](Cc1cnc[nH]1)C(=O)N[C@@H](CO)C(=O)N[C@@H](C)C(=O)N[C@@H](CCCCN)C(=O)N[C@@H](CCCCN)C(=O)N[C@@H](Cc1ccccc1)C(N)=O)[C@@H](C)O [KWKSFINKLTSKFLHSAKKF] |  | 5.13 µM (≈ 12.5 µg/mL) | 
CC(C)C[C@H](NC(=O)[C@H](Cc1ccccc1)NC(=O)[C@H](CCCCN)NC(=O)[C@H](CO)NC(=O)[C@@H](NC(=O)[C@H](CC(C)C)NC(=O)[C@H](CCCCN)NC(=O)[C@H](CCCCN)NC(=O)[C@H](CCCCN)NC(=O)[C@H](Cc1ccccc1)NC(=O)[C@H](CO)NC(=O)[C@H](CCCCN)NC(=O)[C@H](Cc1c[nH]c2ccccc12)NC(=O)[C@@H](N)CCCCN)[C@@H](C)O)C(=O)N[C@@H](Cc1cnc[nH]1)C(=O)N[C@@H](CO)C(=O)N[C@@H](C)C(=O)N[C@@H](CCCCN)C(=O)N[C@@H](CCCCN)C(=O)N[C@@H](Cc1ccccc1)C(N)=O [KWKSFKKKLTSKFLHSAKKF] |  | 5.06 µM (≈ 12.5 µg/mL) | 
CC(C)C[C@H](NC(=O)[C@H](Cc1ccc(O)cc1)NC(=O)[C@@H]1CCCN1C(=O)[C@@H]1CCCN1C(=O)[C@H](CCCCN)NC(=O)[C@@H]1CCCN1C(=O)[C@@H](N)C(C)C)C(=O)N1CCC[C@H]1C(=O)N[C@@H](CCCN=C(N)N)C(=O)N1CCC[C@H]1C(=O)N[C@@H](CCCN=C(N)N)C(=O)N1CCC[C@H]1C(=O)N1CCC[C@H]1C(=O)N[C@@H](CCCN=C(N)N)C(=O)N[C@@H](CCCN=C(N)N)C(=O)N[C@@H](CCCCN)C(=O)N[C@@H](Cc1ccc(O)cc1)C(=O)N[C@@H](CC(N)=O)C(=O)N[C@@H](Cc1cnc[nH]1)C(N)=O [VPKPPYLPRPRPPRRKYNH] | 27 µM (≈ 64 µg/mL) |  | MIC (Escherichia coli UB1005): 2.11 µM (≈ 5 µg/mL); MIC [2]: 3.38 µM (≈ 8 µg/mL)
